Laboratory results as given in US20060045880A1 (priority 2004, published 2006).

What was measured:
BAE/APJ#2 cells [1] = test: BAE/APJ#2 cell proliferation, BrdU incorporation; type: cell-based, bovine; set-up: effect on VEGF-mediated proliferation: dose or concentration left out as unconfirmed
Protocol: (§1) Bovine aortic endothelial cells (BAE) were cultured in DMEM supplemented with 10% fetal bovine serum (FBS) and penicillin/streptomycin. For generation of stable cell lines expressing APJ, the mouse APJ coding region was cloned into the pcDNA 3.1 vector downstream of the CMV promoter, in frame with a myc epitope at the C-terminal end of the protein, and upstream of the neomycin gene. Bovine aortic endothelial (BAE) cells were transfected with this construction using the Superfect transfection kit (Qiagen) and selected for resistance to G418 (600 μg/ml). Colonies were isolated and screened using RT-PCR for expression of mouse APJ and also by immunocytochemistry for expression of the myc epitope.

[2] = tested on: mouse endothelial cells (bEnd3); test: bEnd3 cell proliferation, BrdU incorporation; type: cell-based
Protocol: Similar cellular proliferation assays were performed using mouse endothelial cells (bEnd3) that constitutively express APJ. […] SU1498 was included in proliferation cultures at a 25 μM concentration, and results were assayed using BrdU incorporation.
Proliferation inhibition experiments with the bEnd3 cells also were carried out using FGF (50 ng/ml) or the FGF pathway inhibitor SU5402 (FIG. 19). SU5402 was included in proliferation cultures at a 20 μM concentration, and results were assayed using BrdU incorporation.

apelin transcript = test: Antisense morpholino loss-of-function in frog embryos (apelin); type: in vivo, Xenopus laevis
Protocol: Loss-of-function experiments were performed using antisense morpholino oligonucleotides (MOs) (Gene Tools, Philomath, Oreg.), and the results are shown in FIG. 9. All morpholino oligonucleotides were designed based on recommendations from Gene Tools.
(§2) Morpholino oligonucleotides were reconstituted in 50 mM HEPES buffer (pH 8.0) and injected into the frog embryo. The ap1 MO was injected at 15 ng per embryo, and the ap2 and apj MOs were injected at 7.5 ng. Mismatch controls, ap2 mm and apjmm, were used at twice the experimental dose (15 ng). The MOs were injected into one cell of a 2 cell embryo together with Texas Red Dextran (10 ng; Molecular Probes) as a lineage tracer. Embryos were grown to stage 35 when they were assayed by in situ hybridization using the vascular marker, erg.

APJ transcript = test: Antisense morpholino loss-of-function in frog embryos (APJ); type: in vivo, Xenopus laevis
Protocol: One antisense morpholino oligonucleotide, designed to block translation from both copies of the APJ transcript, was targeted immediately upstream of the initiation ATG: apj 5′-[…]-3′ (SEQ ID NO:9).
The 5 base pair mismatch control sequence for the apj morpholino oligonucleotide (apjmm) is: apjmm 5′-AAGcCTcTGTGcAAcCAATAcAAAG-3′ (SEQ ID NO:10); the mismatch bases indicated in lowercase.
as §2

apelin expression = test: Apelin expression in cardiac myocytes under cobalt chloride (hypoxia mimic), PCR; type: cell-based, rat
Protocol: Preliminary experiments were carried out using primary rat cardiomyocyte cells in culture and treatment with cobalt chloride. This procedure is accepted as an equivalent to culturing cells under hypoxic conditions because HIF-1α is a metal responsive transcription protein (Ladoux and Frelin, 1994; Piret et al., 2002; Maxwell and Salnikow, 2004). Fetal rat cardiac myocytes were plated and cultured in DMEM (Invitrogen, Carlsbad, Calif.) supplemented with 10% fetal calf serum and penicillin/streptomyocin at 37° C. After four days of culture, medium was removed, and cells were treated with fresh media containing 150 μM Cobalt Chloride (Piret et al., 2002). […] After 4 hours of culture, cells were harvested, and total RNA was extracted using the Trizol procedure according to the manufacturers recommendations (Invitrogen, Carlsbad, Calif.).
Following PCR, amplification products were fractionated on an agarose gel and visualized using ethidium bromide staining under ultraviolet light (FIG. 12).
The myocytes were grown in the presence of Cobalt chloride (30 μg/ml). A control known to be non-responsive to hypoxic conditions was used (β-actin), as well as two positive controls which are known to be responsive to hypoxic conditions (VEGF and GLUTI).

BAE/APJ#2 cells [3] = details: 10 ng/ml in bottom chamber, 16 hours
Protocol: as §1
Cell migration assays were performed using Transwell cell culture migration chambers (Becton Dickinson) with 8 micron pore size. BAE/APJ#2 cells were plated in serum free conditions in 100 μl at a concentration of 1×10^5 ml in the upper chamber of the migration chamber. Following cell attachment to the membrane, 10 ng/ml of growth factor was added to the bottom chamber, in a total volume of 0.5 ml. […] Cells attached to the membrane in the lower chamber were stained with DAPI, and 3 random fields were counted for each experimental condition.

## CC(C)c1cc(/C=C(\C#N)C(=O)NCCCc2ccccc2)cc(C(C)C)c1O [SU1498]
BAE/APJ#2 cells [1]; SU1498
  effect on VEGF-mediated proliferation: partially inhibits
BAE/APJ#2 cells [1]; SU1498 10 ng/ml
  effect on apelin-mediated proliferation: no significant effect
[2]; bEnd3, SU1498 25 μM, VEGF 50 ng/ml
  effect on VEGF-mediated proliferation: partially inhibits
[2]; bEnd3, SU1498 25 μM, apelin 10 ng/ml
  effect on apelin-mediated proliferation: no significant effect

## Cc1c[nH]c(/C=C2\C(=O)Nc3ccccc32)c1CCC(=O)O [SU5402]
[2]; bEnd3, SU5402 20 μM, FGF 50 ng/ml
  effect on the proliferative effect of FGF: partially inhibited
[2]; bEnd3, SU5402 20 μM, apelin 10 ng/ml
  effect on apelin-stimulated cellular proliferation: did not have a significant effect

## 5′-GTGCCCAAAGTCTGAGATTCATGTT-3′ (all phosphorodiamidate morpholino (PMO)) [ap1]
Apelin transcript; 15 ng per embryo, N=76, stage 35
  embryos with inhibition of angiogenic growth of embryonic blood vessels: 67 % of the embryos

## 5′-AAGcCTcTGTGcAAcCAATAcAAAG-3′ (antisense AAGCCTCTGTGCAACCAATACAAAG; all phosphorodiamidate morpholino (PMO)) [apjmm]
APJ transcript; mismatch control, 15 ng
  alteration in the vascular growth of the embryos: did not produce a detectable alteration

## 5′-GATTCATGTTTCTTGTGGCTGAGTG-3′ (all phosphorodiamidate morpholino (PMO)) [ap2]
Apelin transcript; 7.5 ng, N=64, stage 35
  embryos with loss of intersomitic vessel formation: 63 % of the embryos

## [Cl][Co][Cl] [Cobalt Chloride]
Apelin expression; 150 μM Cobalt Chloride, 4 hours, fetal rat cardiac myocytes
  apelin expression (PCR): significantly increased
Apelin expression; Cobalt chloride 30 μg/ml, rat cardiac myocytes
  apelin expression: induced

## 5′-GATTgATcTTTgTTGTGcCTcAGTG-3′ (antisense GATTGATCTTTGTTGTGCCTCAGTG; all phosphorodiamidate morpholino (PMO)) [ap2 mm]
Apelin transcript; mismatch control, 15 ng
  alteration in the vascular growth of the embryos: did not produce a detectable alteration

## 5′-AAGGCTGTGTGGAAGCAATAGAAAG-3′ (all phosphorodiamidate morpholino (PMO)) [antisense morpholino to the APJ receptor]
APJ transcript; 7.5 ng, N=48, stage 35
  embryos with decrease in angiogenic growth of blood vessels: 71 % of the embryos

## VEGF
BAE/APJ#2 cells [3]
  endothelial cell migration (cells per field): increase in migration
[2]; bEnd3, apelin 10 ng/ml, VEGF 50 ng/ml, FIG. 17 0.1 ng/ml to 1 μg/ml
  cellular proliferation of endothelial cells: proliferate
